Measurements: patent publication US9150531B2, “Tricyclic lactones for treatment of cancer” (Glactone Pharma Development AB, priority 2010, dated 2015)
Blank lines part the entries; values can stand above or below the compound they belong to.

What was measured:
DU145 [1] = experiment: WST-1 proliferation assay, DU145 cells (Example 17); assay type: cell-based, human
Description: (§1) The human prostate cancer cell line DU145 was used. The cells were cultured in RPMI 1640 medium supplemented with 10% FBS and 1% penicillin-streptomycin. All cells were incubated at 37° C. in a humidified atmosphere of […] and 5% CO2.
WST-1 proliferation assay was performed to study the effects of the test items on the proliferation and viability of cultured prostate cancer cells. DU145 cells were cultured in 96-well plates at the density of 2 000 cells/well in 200 μl of medium. Cells were allowed to set for 24 h and 48 h. The cells were treated with 0.5, 1.0, 2.5, 5.0, 10, and 50 μM of the specific substance for 24 h and 48 h. Samples were made in triplicate. 20 μl WST-1 solution (Roche Applied Science, Mannheim, Germany) was added per well and incubated at 37° C. for 4 h. The absorbance of each well was measured using a scanning multiwell spectrophotometer, ELISA reader at a wavelength of 450 nm and reference wavelength of 690 nm. The results are presented as percent of untreated control cells or the absorbance value.

DU145 [2] = experiment: as above; assay type: cell-based, human; conditions: 25.0 μM
[3] = tested on: STAT-3 transcription factor; experiment: STAT3 inhibition, luciferase reporter (4xM67 pTATA TK-Luc) in HeLa cells stimulated with γ-Interferon; assay type: cell-based; conditions: Homo sapiens, γ-Interferon 8 h, luciferase activity, read-out: Anti STAT3 IC50
Description: HeLa cells (4×10^4/ml) were transiently transfected with a luciferase reporter plasmid (4×M67 pTATA TK-Luc) driven by artificial promoter containing 4 repeated M67 binding sites in tandem for the STAT-3 transcription factor. The transfections were performed for 24 h using Roti-Fect reagent (Carl Roth, Karlsruhe, Germany) according to the manufacturer's recommendations. After incubation with different concentrations of the extracts for 30 min the transfected cells were stimulated for 8 h with γ-Interferon. Then, the cells were lysed in 25 mM Tris-phosphate pH 7.8, 8 mM MgCl2, 1 mM DTT, 1% Triton X-100, and 7% glycerol. Luciferase activity was measured as described for 5.1 cells.
γ-Interferon induces an average of 5-6 fold induction of the luciferase activity compared to non stimulated cells and this represent the index of transactivation that is represented in our experiment as the maximum levels of γ-Interferon-induced STAT-3 activation (100%). Results below represent the IC50 for each compound in this assay. The IC50 means the concentration of each compound that reduces luciferase activity by 50% and it was calculated by GraphPad software.

LNCaP-IL6 cells = experiment: WST-1 proliferation assay, LNCaP-IL6 cells; assay type: cell-based, human
Description: as §1, with “lines DU145, LNCaP (from the American Type culture Collection, ATCC) and long-term interleukin-6 (IL-6) stimulated LNCaP cells (LNCaP-IL6 cells) (Hobisch, Ramoner et al. 2001) were” for “line DU145 was”
(§2) WST-1 proliferation assay was performed to study the effects of the test items on the proliferation and viability of cultured prostate cancer cells. LNCaP and DU145 cells were cultured in 96-well plates at the density of 2 000 cells/well in 200 μl of medium. Cells were allowed to set for 24 h. The cells were treated with 0, 2.5, 5 or 10 μM of the specific substance for 24 h and 48 h. Samples were made in triplicate. 20 μl WST-1 solution (Roche Applied Science, Mannheim, Germany) was added per well and incubated at 37° C. for 4 h. The absorbance of each well was measured using a scanning multiwell spectrophotometer, ELISA reader at a wavelength of 450 nm and reference wavelength of 690 nm. The results are presented as percent of untreated control cells or the absorbance value.

DU145 [4] = experiment: WST-1 proliferation assay, DU145 cells (Example 16); assay type: cell-based, human
Description: as §1, with “lines DU145, LNCaP (from the American Type culture Collection, ATCC) and long-term interleukin-6 (IL-6) stimulated LNCaP cells (LNCaP-IL6 cells) (Hobisch, Ramoner et al. 2001) were” for “line DU145 was”
as §2

Structure (SMILES): C[C@H]1C=C2C(=O)O[C@@H]3C[C@@H](c4ccccc4)[C@H](C1)[C@]23O (stereo in doubt) [Example 4, 5,5a,6,7,7a,7b-hexahydro-7b-hydroxy-4-methyl-6-phenyl-indeno[1,7-bc]furan-2(4H)-one]
Proliferation (vs control) Du145 (%) 24 h (DU145 [1]; 0.5 μM): 125.24% | Proliferation (vs control) Du145 (%) 48 h (DU145 [1]; 0.5 μM): 161.90% | Proliferation (vs control) Du145 (%) 24 h (DU145 [1]; 1.0 μM): 76.74% | Proliferation (vs control) Du145 (%) 48 h (DU145 [1]; 1.0 μM): 106.97% | Proliferation (vs control) Du145 (%) 24 h (DU145 [1]; 2.5 μM): 86.48% | Proliferation (vs control) Du145 (%) 48 h (DU145 [1]; 2.5 μM): 106.23% | Proliferation (vs control) Du145 (%) 24 h (DU145 [1]; 5.0 μM): 91.39% | Proliferation (vs control) Du145 (%) 48 h (DU145 [1]; 5.0 μM): 73.13% | Proliferation (vs control) Du145 (%) 24 h (DU145 [1]; 10.0 μM): 45.29% | Proliferation (vs control) Du145 (%) 48 h (DU145 [1]; 10.0 μM): 59.35% | Proliferation (vs control) Du145 (%) 24 h (DU145 [1]; 50.0 μM): 18.31% | Proliferation (vs control) Du145 (%) 48 h (DU145 [1]; 50.0 μM): 11.34% | Proliferation (vs control) Du145 (%) 24 h (DU145 [2]): 22.17% | Proliferation (vs control) Du145 (%) 48 h (DU145 [2]): 21.83%

Structure (SMILES): C[C@H]1C=C2C(=O)O[C@@H]3CC[C@H](C1(C)C)[C@]23O (stereo in doubt) [Example 5, 5,5a,6,7,7a,7b-hexahydro-7b-hydroxy-4,5,5-trimethyl-indeno[1,7-bc]furan-2(4H)-one]
Proliferation (vs control) Du145 (%) 24 h (DU145 [1]; 0.5 μM): 105.62% | Proliferation (vs control) Du145 (%) 48 h (DU145 [1]; 0.5 μM): 98.92% | Proliferation (vs control) Du145 (%) 24 h (DU145 [1]; 1.0 μM): 101.40% | Proliferation (vs control) Du145 (%) 48 h (DU145 [1]; 1.0 μM): 93.59% | Proliferation (vs control) Du145 (%) 24 h (DU145 [1]; 2.5 μM): 72.14% | Proliferation (vs control) Du145 (%) 48 h (DU145 [1]; 2.5 μM): 53.09% | Proliferation (vs control) Du145 (%) 24 h (DU145 [1]; 5.0 μM): 54.75% | Proliferation (vs control) Du145 (%) 48 h (DU145 [1]; 5.0 μM): 35.53% | Proliferation (vs control) Du145 (%) 24 h (DU145 [1]; 10.0 μM): 39.62% | Proliferation (vs control) Du145 (%) 48 h (DU145 [1]; 10.0 μM): 29.96% | Proliferation (vs control) Du145 (%) 24 h (DU145 [1]; 50.0 μM): 14.36% | Proliferation (vs control) Du145 (%) 48 h (DU145 [1]; 50.0 μM): 8.51% | Proliferation (vs control) Du145 (%) 24 h (DU145 [2]): 28.13% | Proliferation (vs control) Du145 (%) 48 h (DU145 [2]): 13.26%

Structure (SMILES): O=C1O[C@@H]2[C@H](Cc3ccccc3)C[C@@H]3CCC=C1[C@@]32O (stereo in doubt) [Example 6, 5,5a,6,7,7a,7b-hexahydro-7b-hydroxy-7-benzyl-indeno[1,7-bc]furan-2(4H)-one]
Proliferation (vs control) Du145 (%) 24 h (DU145 [1]; 0.5 μM): 110.14% | Proliferation (vs control) Du145 (%) 48 h (DU145 [1]; 0.5 μM): 121.11% | Proliferation (vs control) Du145 (%) 24 h (DU145 [1]; 1.0 μM): 98.76% | Proliferation (vs control) Du145 (%) 48 h (DU145 [1]; 1.0 μM): 120.77% | Proliferation (vs control) Du145 (%) 24 h (DU145 [1]; 2.5 μM): 104.13% | Proliferation (vs control) Du145 (%) 48 h (DU145 [1]; 2.5 μM): 101.61% | Proliferation (vs control) Du145 (%) 24 h (DU145 [1]; 5.0 μM): 81.25% | Proliferation (vs control) Du145 (%) 48 h (DU145 [1]; 5.0 μM): 78.86% | Proliferation (vs control) Du145 (%) 24 h (DU145 [1]; 10.0 μM): 43.88% | Proliferation (vs control) Du145 (%) 48 h (DU145 [1]; 10.0 μM): 42.70% | Proliferation (vs control) Du145 (%) 24 h (DU145 [1]; 50.0 μM): 23.59% | Proliferation (vs control) Du145 (%) 48 h (DU145 [1]; 50.0 μM): 9.88% | Proliferation (vs control) Du145 (%) 24 h (DU145 [2]): 45.01% | Proliferation (vs control) Du145 (%) 48 h (DU145 [2]): 23.80%

IC50 [3]: 1830 nM
Structure (SMILES): COC(=O)C1=C[C@H](C)C[C@H]2C[C@H](c3ccccc3)[C@@H]3O[C@]123 (stereo in doubt) [Example 7, methyl 5-methyl-2-phenyl-1a,2,3,3a,4,5-hexahydroindeno[1,7a-b]oxirene-7-carboxylate]
% Proliferation (vs control) 24 h LNCaP-IL6 (LNCaP-IL6 cells; 2.5 uM): 81.79% | % Proliferation (vs control) 48 h LNCaP-IL6 (LNCaP-IL6 cells; 2.5 uM): 82.60% | % Proliferation (vs control) 24 h LNCaP-IL6 (LNCaP-IL6 cells; 5 uM): 81.21% | % Proliferation (vs control) 48 h LNCaP-IL6 (LNCaP-IL6 cells; 5 uM): 85.26% | % Proliferation (vs control) 24 h LNCaP-IL6 (LNCaP-IL6 cells; 10 uM): 70.45% | % Proliferation (vs control) 48 h LNCaP-IL6 (LNCaP-IL6 cells; 10 uM): 71.27% | % Proliferation (vs control) 24 h DU145 (DU145 [4]; 2.5 uM): 90.64% | % Proliferation (vs control) 48 h Du145 (DU145 [4]; 2.5 uM): 95.09% | % Proliferation (vs control) 24 h DU145 (DU145 [4]; 5 uM): 68.55% | % Proliferation (vs control) 48 h Du145 (DU145 [4]; 5 uM): 75.05% | % Proliferation (vs control) 24 h DU145 (DU145 [4]; 10 uM): 63.86% | % Proliferation (vs control) 48 h Du145 (DU145 [4]; 10 uM): 76.58%
